According to ChEMBL document CHEMBL1201862, “PubChem BioAssay data set” (2004):
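Protocol summary: plate cells (96-well), add compound at 5 concentrations, incubate 48 h, interpolate endpoints linearly. GI50 = concentration required for 50% inhibition of growth.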 Calls of active or inactive are those of the source. Cut-off read from the data, not from the text of the source: active = GI50 up to about 1.1 µM and inactive = higher.

How the values were obtained:
Assay in all cases: growth of human tumour cells (NCI), 48 h
[1] = test system: SK-MEL-2
[2] = test system: COLO 205
[3] = test system: SF-268
[4] = test system: SR
[5] = test system: NCI-H460
[6] = test system: NCI/ADR-RES
[7] = test system: NCI-H522
[8] = test system: KM12
[9] = test system: CAKI-1
[10] = test system: HCT-116
[11] = test system: SNB-19
[12] = test system: MDA-MB-435
[13] = test system: RXF 393
[14] = test system: EKVX
[15] = test system: SK-MEL-28
[16] = test system: MOLT-4
[17] = test system: T47D
[18] = test system: SN12C
[19] = test system: A549
[20] = test system: Hs-578T
[21] = test system: SK-MEL-5
[22] = test system: HL-60
[23] = test system: PC-3
[24] = test system: IGROV-1
[25] = test system: SK-OV-3
[26] = test system: OVCAR-3
[27] = test system: SW-620
[28] = test system: TK-10
[29] = test system: UO-31
[30] = test system: CCRF-CEM
[31] = test system: HCC 2998
[32] = test system: K562
[33] = test system: UACC-257
[34] = test system: RPMI-8226
[35] = test system: NCI-H23
[36] = test system: HOP-92
[37] = test system: SF-295
[38] = test system: MDA-MB-231
[39] = test system: BT-549
[40] = test system: MCF7
[41] = test system: HOP-62
[42] = test system: LOX IMVI
[43] = test system: OVCAR-4
[44] = test system: MDA-N
[45] = test system: DU-145
[46] = test system: M14
[47] = test system: UACC-62
[48] = test system: NCI-H226
[49] = test system: U-251
[50] = test system: Malme-3M
[51] = test system: SF-539
[52] = test system: 786-0
[53] = test system: ACHN
[54] = test system: HCT-15
[55] = test system: OVCAR-8
[56] = test system: OVCAR-5
[57] = test system: HT-29
[58] = test system: SNB-75
[59] = test system: A498

Compound: CCCCOCCOCCOC1=CC(=O)c2c(O)ccc(O)c2C1=O
- GI50 [1]: 1.9 µM (inactive)
- GI50 [2]: 1.4 µM (inactive)
- GI50 [3]: 4.26 µM (inactive)
- GI50 [4]: 2.7 µM (inactive)
- GI50 [5]: 1.95 µM (inactive)
- GI50 [6]: 2.14 µM (inactive)
- GI50 [7]: 1.63 µM (inactive)
- GI50 [8]: 1.83 µM (inactive)
- GI50 [9]: 1.95 µM (inactive)
- GI50 [10]: 1.76 µM (inactive)
- GI50 [11]: 1.79 µM (inactive)
- GI50 [12]: 0.188 µM (active)
- GI50 [13]: 1.94 µM (inactive)
- GI50 [14]: 5.19 µM (inactive)
- GI50 [15]: 1.53 µM (inactive)
- GI50 [16]: 2.65 µM (inactive)
- GI50 [17]: 2.65 µM (inactive)
- GI50 [18]: 1.82 µM (inactive)
- GI50 [19]: 1.8 µM (inactive)
- GI50 [20]: 2.55 µM (inactive)
- GI50 [21]: 1.05 µM (active)
- GI50 [22]: 2.27 µM (inactive)
- GI50 [23]: 3 µM (inactive)
- GI50 [24]: 1.89 µM (inactive)
- GI50 [25]: > 10 µM (inactive)
- GI50 [26]: 1.61 µM (inactive)
- GI50 [27]: 1.57 µM (inactive)
- GI50 [28]: 3.05 µM (inactive)
- GI50 [29]: 1.58 µM (inactive)
- GI50 [30]: 2.14 µM (inactive)
- GI50 [31]: 1.82 µM (inactive)
- GI50 [32]: 2.5 µM (inactive)
- GI50 [33]: 1.58 µM (inactive)
- GI50 [34]: 2.4 µM (inactive)
- GI50 [35]: 1.82 µM (inactive)
- GI50 [36]: 2.9 µM (inactive)
- GI50 [37]: 1.68 µM (inactive)
- GI50 [38]: 1.73 µM (inactive)
- GI50 [39]: 1.77 µM (inactive)
- GI50 [40]: 1.75 µM (inactive)
- GI50 [41]: 1.79 µM (inactive)
- GI50 [42]: 1.86 µM (inactive)
- GI50 [43]: 1.94 µM (inactive)
- GI50 [44]: 0.167 µM (active)
- GI50 [45]: 1.7 µM (inactive)
- GI50 [46]: 1.51 µM (inactive)
- GI50 [47]: 1.82 µM (inactive)
- GI50 [48]: 2.01 µM (inactive)
- GI50 [49]: 1.85 µM (inactive)
- GI50 [50]: 0.4 µM (active)
- GI50 [51]: 2.03 µM (inactive)
- GI50 [52]: 1.6 µM (inactive)
- GI50 [53]: 1.66 µM (inactive)

Compound: COC(=O)C1=C(C)C(=O)[C@]23C(CCCC[C@H]12)C(=O)[C@H](C(=O)OC)C3C (stereo partly drawn)
- GI50 [2]: > 100 µM (inactive)
- GI50 [3]: > 100 µM (inactive)
- GI50 [4]: 50.9 µM (inactive)
- GI50 [5]: > 100 µM (inactive)
- GI50 [6]: > 100 µM (inactive)
- GI50 [7]: > 100 µM (inactive)
- GI50 [8]: > 100 µM (inactive)
- GI50 [9]: > 100 µM (inactive)
- GI50 [10]: > 100 µM (inactive)
- GI50 [11]: > 100 µM (inactive)
- GI50 [12]: > 100 µM (inactive)
- GI50 [14]: > 100 µM (inactive)
- GI50 [15]: > 100 µM (inactive)
- GI50 [16]: > 100 µM (inactive)
- GI50 [17]: > 100 µM (inactive)
- GI50 [18]: > 100 µM (inactive)
- GI50 [19]: > 100 µM (inactive)
- GI50 [20]: > 100 µM (inactive)
- GI50 [22]: > 100 µM (inactive)
- GI50 [23]: > 100 µM (inactive)
- GI50 [24]: > 100 µM (inactive)
- GI50 [25]: > 100 µM (inactive)
- GI50 [26]: > 100 µM (inactive)
- GI50 [27]: > 100 µM (inactive)
- GI50 [28]: > 100 µM (inactive)
- GI50 [29]: > 100 µM (inactive)
- GI50 [30]: > 100 µM (inactive)
- GI50 [31]: > 100 µM (inactive)
- GI50 [32]: > 100 µM (inactive)
- GI50 [33]: > 100 µM (inactive)
- GI50 [35]: > 100 µM (inactive)
- GI50 [36]: > 100 µM (inactive)
- GI50 [37]: > 100 µM (inactive)
- GI50 [38]: > 100 µM (inactive)
- GI50 [39]: > 100 µM (inactive)
- GI50 [40]: > 100 µM (inactive)
- GI50 [41]: > 100 µM (inactive)
- GI50 [42]: > 100 µM (inactive)
- GI50 [54]: > 100 µM
- GI50 [55]: > 100 µM (inactive)
- GI50 [43]: > 100 µM (inactive)
- GI50 [44]: > 100 µM (inactive)
- GI50 [45]: > 100 µM (inactive)
- GI50 [46]: > 100 µM (inactive)
- GI50 [47]: > 100 µM (inactive)
- GI50 [48]: > 100 µM (inactive)
- GI50 [49]: > 100 µM (inactive)
- GI50 [50]: > 100 µM (inactive)
- GI50 [51]: > 100 µM (inactive)
- GI50 [56]: > 100 µM (inactive)
- GI50 [57]: > 100 µM (inactive)
- GI50 [52]: > 100 µM (inactive)
- GI50 [53]: > 100 µM (inactive)

Compound: N#CCCN(CCCN(C(=O)N(c1ccccc1)c1ccccc1)c1ccccc1)C(=O)Nc1ccccc1
- GI50 [1]: > 100 µM (inactive)
- GI50 [2]: > 10 µM (inactive)
- GI50 [3]: > 100 µM (inactive)
- GI50 [5]: 40 µM (inactive)
- GI50 [6]: 30.1 µM (inactive)
- GI50 [7]: 58.3 µM (inactive)
- GI50 [8]: 41.6 µM (inactive)
- GI50 [9]: > 100 µM (inactive)
- GI50 [10]: 29.6 µM (inactive)
- GI50 [11]: > 100 µM (inactive)
- GI50 [58]: 14 µM (inactive)
- GI50 [12]: > 100 µM (inactive)
- GI50 [13]: > 100 µM (inactive)
- GI50 [14]: 35.6 µM (inactive)
- GI50 [15]: > 100 µM (inactive)
- GI50 [16]: 11.5 µM (inactive)
- GI50 [17]: 64.9 µM (inactive)
- GI50 [19]: 18.9 µM (inactive)
- GI50 [20]: 67.3 µM (inactive)
- GI50 [21]: 24.9 µM (inactive)
- GI50 [22]: 8.91 µM (inactive)
- GI50 [23]: 18.7 µM (inactive)
- GI50 [25]: > 100 µM (inactive)
- GI50 [26]: > 100 µM (inactive)
- GI50 [27]: > 100 µM (inactive)
- GI50 [28]: > 100 µM (inactive)
- GI50 [29]: 67 µM (inactive)
- GI50 [30]: 15.9 µM (inactive)
- GI50 [31]: > 100 µM (inactive)
- GI50 [32]: 28.6 µM (inactive)
- GI50 [33]: 74 µM (inactive)
- GI50 [34]: 94 µM (inactive)
- GI50 [35]: > 100 µM (inactive)
- GI50 [36]: > 100 µM (inactive)
- GI50 [37]: 76.6 µM (inactive)
- GI50 [38]: > 100 µM (inactive)
- GI50 [39]: > 100 µM (inactive)
- GI50 [40]: 18.2 µM (inactive)
- GI50 [41]: > 100 µM (inactive)
- GI50 [42]: > 100 µM (inactive)
- GI50 [54]: > 100 µM
- GI50 [55]: 21.5 µM (inactive)
- GI50 [43]: 95.1 µM (inactive)
- GI50 [44]: > 100 µM (inactive)
- GI50 [59]: > 100 µM (inactive)
- GI50 [45]: > 100 µM (inactive)
- GI50 [46]: > 100 µM (inactive)
- GI50 [47]: > 100 µM (inactive)
- GI50 [48]: > 100 µM (inactive)
- GI50 [49]: 92 µM (inactive)
- GI50 [50]: > 100 µM (inactive)
- GI50 [51]: > 100 µM (inactive)
- GI50 [56]: > 100 µM (inactive)
- GI50 [57]: 32.3 µM (inactive)
- GI50 [52]: > 100 µM (inactive)
- GI50 [53]: 93.3 µM (inactive)

Compound: O=C(CCN1CCCCC1)Nc1ccc2sc3ccccc3c(=O)c2n1
- GI50 [1]: > 10 µM (inactive)
- GI50 [2]: 8.32 µM (inactive)
- GI50 [3]: 16.3 µM (inactive)
- GI50 [4]: 12.2 µM (inactive)
- GI50 [5]: 13.7 µM (inactive)
- GI50 [6]: 7.67 µM (inactive)
- GI50 [7]: 12 µM (inactive)
- GI50 [8]: 15.9 µM (inactive)
- GI50 [9]: 11.5 µM (inactive)
- GI50 [10]: 6.46 µM (inactive)
- GI50 [11]: 15.4 µM (inactive)
- GI50 [58]: 10.5 µM (inactive)
- GI50 [12]: 13.1 µM (inactive)
- GI50 [14]: 20.2 µM (inactive)
- GI50 [15]: 16.7 µM (inactive)
- GI50 [16]: 2.56 µM (inactive)
- GI50 [17]: 28.4 µM (inactive)
- GI50 [18]: 12.3 µM (inactive)
- GI50 [19]: 15 µM (inactive)
- GI50 [20]: 19.9 µM (inactive)
- GI50 [21]: 21.6 µM (inactive)
- GI50 [22]: 3.89 µM (inactive)
- GI50 [23]: 11.9 µM (inactive)
- GI50 [24]: 13.4 µM (inactive)
- GI50 [25]: 23.2 µM (inactive)
- GI50 [26]: 15.8 µM (inactive)
- GI50 [27]: 8.3 µM (inactive)
- GI50 [28]: 15.7 µM (inactive)
- GI50 [29]: 9.79 µM (inactive)
- GI50 [30]: 7.91 µM (inactive)
- GI50 [31]: 14.4 µM (inactive)
- GI50 [32]: 6.38 µM (inactive)
- GI50 [33]: 19.7 µM (inactive)
- GI50 [34]: 6.04 µM (inactive)
- GI50 [35]: > 10 µM (inactive)
- GI50 [36]: 0.411 µM (active)
- GI50 [37]: 18.1 µM (inactive)
- GI50 [38]: 14.7 µM (inactive)
- GI50 [39]: 15.5 µM (inactive)
- GI50 [40]: 15.9 µM (inactive)
- GI50 [41]: 13.1 µM (inactive)
- GI50 [42]: 10.3 µM (inactive)
- GI50 [54]: 15.1 µM
- GI50 [55]: > 10 µM (inactive)
- GI50 [43]: 16 µM (inactive)
- GI50 [44]: 14.3 µM (inactive)
- GI50 [45]: 18.4 µM (inactive)
- GI50 [46]: 13.6 µM (inactive)
- GI50 [47]: 14.5 µM (inactive)
- GI50 [49]: 14.6 µM (inactive)
- GI50 [50]: 28 µM (inactive)
- GI50 [51]: 15.3 µM (inactive)
- GI50 [56]: 18.2 µM (inactive)
- GI50 [57]: 31.6 µM (inactive)
- GI50 [52]: 11.8 µM (inactive)
- GI50 [53]: 10.2 µM (inactive)
